Data set [1] has as its system MDA-MB-231 and HepG2 cell lines.
Data set [2] in a line: Live imaging of Cy5-labeled peptide after tail vein injection in Hep3B xenograft mouse. The note with it: in vivo. The source says:
(§1) The following methods were used to confirm the stability and safety of the cancer cell-specific cell death-inducing ACP52C. […] It is presumed that ACP52C is subjected to renal secretion rather than degradation by proteases, since ACP52C (a peptide consisted of 15 amino acids) is short enough to be easily secreted from the kidneys.

A further data set relates to MDA-MB-231 cell line. The note with it: MDA-MB-231, FACS.
Another data set has as its system Hep3B xenograft. The experiment in a line: Tumor growth inhibition in Hep3B xenograft mouse model. The class given is in vivo. The method, then: In order to confirm the anticancer efficacy of ACP52CG and ACP52CK in vivo, following groups of treatment were performed […]; a negative control (saline; mock), a positive control (sorafenib, 10 mg/kg and ACP52C, 2 mg/kg), and an experimental group (ACP52CK, 5 mg/kg and ACP52CG, 5 mg/kg).

The subject of data set [3] is various cancer cell lines. In words: Cell growth inhibition in various cancer cell lines (MTT assay, GI50). The class given is cell-based.
Data set [4] deals with MCF10A, a non-tumorigenetic breast epithelial cell line. The note with it: FACS.
Data set [5] in a line: Stability in serum (in vitro) by HPLC. In kind it is in vitro ADME.
Excerpt: as §1

A further data set has as its system MCF10A cells. The note with it: electron microscopy.
Data set [6] is described as follows: Half-life in blood (in vivo) by HPLC. The note with it: read-out: time to degradation to half in blood (in vivo) (converted).
Excerpt: as §1

The subject of the next data set is MDA-MB-231 cells. The note with it: western blotting of apoptosis-related proteins, electron microscopy, Annexin V/PI. In general terms: A western blot detects proteins with antibodies after separation by electrophoresis.
The next data set relates to MCF7 cells. Conditions: ACP52C-treated MCF7 cells.
Another data set has as its system human erythrocytes. In words: Hemolysis of erythrocytes. In kind it is cell-based. The note with it: pH 7.4, 8 hours.
Excerpt: as §1

Data set [7] relates to breast cancer (MDA-MB-231) and liver cancer (HepG2) cell lines.
In data set [8] the test system is normal human mesenchymal stem cells (hMSCs). The method, then: (§2) As an example thereof, FIG. 10 illustrates cell numbers at 48 hours and 96 hours after treatment of each drug at different concentrations in a breast cancer cell line (MDA-MB-231), normal human mesenchymal stem cells (hMSCs, LT18), and a non-tumorigenic lung cell line (BEAS-2B), cell growth inhibition graphs to get GI50 values, and representative photographs of cells.
(§3) First, to test the effect of DHA itself, a breast cancer cell line (MDA-MB-231), liver cancer cell lines (Hep3B and HepG2), a normal hMSC cell line ([…]), and a non-tumorigenic lung cell line (BEAS-2B) were treated with DHA over concentrations, and then cell growth was analyzed by MTT assay.

Data set [9] has as its system non-tumorigenic lung cell line (BEAS-2B). The method, then: as §2, §3
The test system of data set [10] is breast cancer cell line (MDA-MB-231), liver cancer cell lines (Hep3B and HepG2). The experiment in a line: Cell growth by MTT assay after DHA treatment of cancer cell lines. The class given is cell-based. (Formazan colour is commonly taken as a measure of viable cells.)
Experimental: First, to test the effect of DHA itself, a breast cancer cell line (MDA-MB-231), liver cancer cell lines (Hep3B and HepG2), a normal hMSC cell line (LA211), and a non-tumorigenic lung cell line (BEAS-2B) were treated with DHA over concentrations, and then cell growth was analyzed by MTT assay.
In data set [11] the test system is CP2c transcription factor complexes [CP2c homotetramer and the CBP (CP2c, CP2b, and PIAS1) heterohexamer]. The experiment in a line: Interference with CP2c transcription factor complex formation and DNA binding. The class given is biochemical. The source says: Since PEP #5-2 cannot enter cells by itself, in order to improve cell permeability of Pep #5-2, a cell-penetrating peptide (CPP), an internalizing RGD (iRGD) which is a peptide consisting of 9 amino acids (9aa) ‘Cys-Arg-Gly-Asp-Lys-Gly-Pro-Asp-Cys (CRGDKGPDC, SEQ ID NO: 3)’, was bound to the CP2c-targeting peptide and named it as ACP52C (FIG. 7).

The mark [12] stands for this setting: tail vein, 6 times at 3-day intervals, sorafenib 10 mg/kg, DHA-ACP52 1.65 mg/kg, DHA-ACP52C 2.79 mg/kg.

Bridge positions count the residues as written; N and C are the ends. Peptide text beside a SMILES is read from it. * marks the point of attachment. X1 = CC/C=C\C/C=C\C/C=C\C/C=C\C/C=C\C/C=C\CCC(=O)*

The GI50 is the concentration that inhibits growth by half. Lower therefore signals more potent growth inhibition. On to `N=C(N)NCCC[C@@H]1NC(=O)[C@@H](NC(=O)[C@@H]2CCCN2C(=O)[C@H](CCCNC(=N)N)NC(=O)[C@H](CCC(N)=O)NC(=O)[C@@H]2CCCN2C(=O)[C@H](Cc2ccc(O)cc2)NC(=O)[C@@H](N)CC(N)=O)CSSC[C@@H](C(N)=O)NC(=O)[C@H](CC(=O)O)NC(=O)[C@@H]2CCCN2C(=O)CNC(=O)[C@H](CCCCN)NC(=O)[C@H](CC(=O)O)NC(=O)CNC1=O` [ACP52C] (H-NYPQRPCRGDKGPDC-NH2; disulfide 7-15; N-terminus assumed), for which the “colony formation ability when CP2c is overexpressed” value in data set [1] (CP2c overexpression) is recorded as “the colony formation ability is suppressed more efficiently”. In addition, in [1] (MDA-MB-231 and HepG2), the colony formation ability entry was “efficiently suppressed the colony formation ability”. Also, the half-life in data set [2] is around 7.95 h; in data set [6] it was 2 h. Besides, the cell cycle changes result with MDA-MB-231 cell line was “induced cell cycle arrest, increasing cells at G2/M and subG1 phases”. For the same molecule, the “anticancer effect (summary)” value in the data set on Hep3B xenograft (injected by 3-day intervals) was “exhibited a significant anticancer effect when injected by 3-day intervals”; in the data set with Hep3B xenograft (injected by 5-day intervals) it was “did not exhibit a significant anticancer effect when injected by 5-day intervals”. Further, the “effective concentration for cancer cell-specific cell death” value in data set [3] was at most 10 µM. The “cancer cell-specific growth suppression and cell death” value in data set [3] (various cancer cell lines) was “cancer cell-specific growth suppression and cell death efficacies”. In data set [4], the cell cycle progression entry is “exerted no effect on cell cycle progression”. The “time stable in serum (in vitro)” value in [5] was “up to 24 hours”. Also, the “characteristics of apoptosis (condensation of cell nuclei)” value in the data set with MCF10A cells is “not at all in MCF10A cells”. The “cell death induction via apoptosis” value with MDA-MB-231 cells is “induced cell death via apoptosis”. Further, in the data set on MCF7 cells, the “expression of Cdc2 (CDK1) and Cyclin B1” value was “expression of Cdc2 (CDK1) and Cyclin B1 was decreased”. In addition, the hemolysis result in the data set on human erythrocytes is “Hemolysis was not appeared”. The molecule further showed a GI50 in [7] of 2 µM.
On to `CC/C=C\C/C=C\C/C=C\C/C=C\C/C=C\C/C=C\CCC(=O)NCC(=O)NCC(=O)N[C@@H](CC(N)=O)C(=O)N[C@@H](Cc1ccc(O)cc1)C(=O)N1CCC[C@H]1C(=O)N[C@@H](CCC(N)=O)C(=O)N[C@@H](CCCNC(=N)N)C(=O)N1CCC[C@H]1C(N)=O` [DHA-ACP52] (X1-GGNYPQRP-NH2), for which the “tumor size, shape, and weight in sacrificed mice” value in the data set with Hep3B xenograft (setting [12]) was “did not exhibit any effect”. Further, the toxicity result in data set [8] is “none of DHA-ACP52 and DHA-ACP52C showed toxicity”; in data set [9], “none of DHA-ACP52 and DHA-ACP52C showed toxicity”. Also, in data set [7], the GI50 was 5.7 to 6.95 µM.
Take `CC/C=C\C/C=C\C/C=C\C/C=C\C/C=C\C/C=C\CCC(=O)O` [DHA, all-cis-docosa-4,7,10,13,16,19-hexa-enoic acid, reference compound]: in [10] (Hep3B and MDA-MB-231 cell lines), the “anticancer effect at a concentration of 10 μM or less” value was “no anticancer effect was exhibited”. For the same molecule, the concentration showing cytotoxicity is at least 20 µM in data set [10] (cancer cells, MTT) and at least 20 µM in data set [9] (human). Also, in [8], the cytotoxicity entry is listed as “showed no cytotoxicity on the normal cell line”.
For the molecule “NYPQRP(Asn-Try-Pro-Gln-Arg-Pro, SEQ ID NO: 2) (peptide for targeting CP2c) [PEP #5-2, CP2c-targeting peptide of 6 amino acids at the carboxyl terminus of PEP #5]”, in data set [11], the “interference with DNA binding of the CP2c transcription factor complexes by suppressing complex formation” value is on record as “showed the same effect as PEP #5”.
Take `CNC(=O)c1cc(Oc2ccc(NC(=O)Nc3ccc(Cl)c(C(F)(F)F)c3)cc2)ccn1` [sorafenib, reference compound]: in the data set on Hep3B xenograft (setting [12]), the “tumor size measured once every 3 days during the experiment” value was “inhibited cancer growth more effectively than the group treated with mock or DHA-ACP52”; the “tumor size, shape, and weight in sacrificed mice” value was “significant anticancer efficacy compared to the mock”.
As for “PEP #5: peptide binding transcription factor CP2c, identified by the phage display method (YPQR; peptide for targeting CP2c)”, in data set [11], the “interference with DNA binding of the CP2c transcription factor complexes by suppressing complex formation” value is reported as “interferes with DNA binding of the CP2c transcription factor complexes”.

The values above are taken from patent US20230078718A1, “UNSATURATED FATTY ACID-CONJUGATED CP2C-TARGETING PEPTIDE-BASED ANTICANCER AGENT” (Industry-University Cooperation Foundation Hanyang …, priority 2020, published 2023).
